According to PubChem BioAssay AID1259407 (Chemical Carcinogenesis Research Information System (CCRIS), 2018):
Active and inactive are the calls of the source. How the calls were made is not given here.

System: CCRIS mutagenicity, Ames/micronucleus/aberration tests
Assay: CCRIS mutagenicity studies
[1] = Test System: AMES SALMONELLA TYPHIMURIUM, Strain/Indicator: TA98, Metabolic Activation: NONE, Method: STANDARD PLATE
[2] = Test System: AMES SALMONELLA TYPHIMURIUM, Strain/Indicator: TA100, Metabolic Activation: NONE, Method: STANDARD PLATE
[3] = Test System: AMES SALMONELLA TYPHIMURIUM, Strain/Indicator: TA1535, Metabolic Activation: NONE, Method: STANDARD PLATE

## [Cl][Cd][Cl]
End Point: IN VITRO MICRONUCLEUS, Test System: CHL/IU CELLS, Metabolic Activation: NONE
  mutagenic call: active; positive
End Point: IN VITRO MICRONUCLEUS, Test System: HAMSTER V79 CELLS, Metabolic Activation: NONE
  mutagenic call: active; positive
End Point: IN VITRO MICRONUCLEUS, Test System: HUMAN PERIPHERAL LYMPHOCYTES, Metabolic Activation: NONE, Method: FISH (CENTROMERIC SIGNAL CONTENT)
  mutagenic call: active; positive
Test System: AMES SALMONELLA TYPHIMURIUM, Strain/Indicator: TA97, Metabolic Activation: NONE, Method: STANDARD PLATE
  mutagenic call: inactive; negative
Test System: AMES SALMONELLA TYPHIMURIUM, Strain/Indicator: TA97, Metabolic Activation: RAT, LIVER, S-9, AROCLOR 1254, Method: STANDARD PLATE
  mutagenic call: inactive; negative
[1]
  mutagenic call: inactive; negative
Test System: AMES SALMONELLA TYPHIMURIUM, Strain/Indicator: TA98, Metabolic Activation: RAT, LIVER, S-9, AROCLOR 1254, Method: STANDARD PLATE
  mutagenic call: inactive; negative
Test System: AMES SALMONELLA TYPHIMURIUM, Strain/Indicator: TA98, Metabolic Activation: S-9, Method: STANDARD PLATE
  mutagenic call: inactive; negative
[2]
  mutagenic call: inactive; negative
Test System: AMES SALMONELLA TYPHIMURIUM, Strain/Indicator: TA100, Metabolic Activation: RAT, LIVER, S-9, AROCLOR 1254, Method: STANDARD PLATE
  mutagenic call: inactive; negative
[3]
  mutagenic call: inactive; negative
Test System: AMES SALMONELLA TYPHIMURIUM, Strain/Indicator: TA1535, Metabolic Activation: S-9, Method: STANDARD PLATE
  mutagenic call: inactive; negative
Test System: CHINESE HAMSTER V-79, Strain/Indicator: SP5 V-79 (HPRT)/6-THIOGUANINE, Metabolic Activation: NONE, Method: STANDARD PLATE
  mutagenic call: inactive; negative
Test System: CHINESE HAMSTER V-79, Strain/Indicator: SPD8 V-79 (HPRT)/6-THIOGUANINE, Metabolic Activation: NONE, Method: STANDARD PLATE
  mutagenic call: active; positive
Test System: CHINESE HAMSTER V-79 CELLS, Strain/Indicator: V-79 CELLS (HPRT)/6-THIOGUANINE, Metabolic Activation: NONE, Method: PREINCUBATION
  mutagenic call: inactive; negative
Test System: Chinese hamster lung cells, Strain/Indicator: V-79/HPRT/6-Thioguanidine, Metabolic Activation: None, Method: Standard Plate
  mutagenic call: active; positive
Test System: E. COLI, Strain/Indicator: WP2 UVRA, Metabolic Activation: NONE, Method: SPOT TEST
  mutagenic call: active; positive
Test System: E. COLI, Strain/Indicator: WP2 UVRA, Metabolic Activation: NONE, Method: STANDARD PLATE
  mutagenic call: active; positive
Test System: Rat lymphocytes, Strain/Indicator: Kumin/Male/HPRT/6-Thioguanidine, Metabolic Activation: None, Method: Intraperitoneal injection, blood collection 1, 6, and 12 d later
  mutagenic call: active; positive
Test System: UDS HAMSTER TRACHEAL EPITHELIAL CELLS, Strain/Indicator: THY INCORP (NON-S-PHASE), Metabolic Activation: NONE, Method: AUTORADIOGRAPHY
  mutagenic call: inactive; negative
Test System: UDS RAT TRACHEAL EPITHELIAL CELLS, Strain/Indicator: THY INCORP (NON-S-PHASE), Metabolic Activation: NONE, Method: AUTORADIOGRAPHY
  mutagenic call: active; positive

## Cc1cccc2c1cc1ccc3cccc4ccc2c1c34
Test System: AMES SALMONELLA TYPHIMURIUM, Strain/Indicator: TA100, Metabolic Activation: RAT, INTACT HEPATOCYTES, AROCLOR 1254, Method: PREINCUBATION
  mutagenic call: inactive; negative
Test System: AMES SALMONELLA TYPHIMURIUM, Strain/Indicator: TA100, Metabolic Activation: RAT, NADPH-FORTIFIED HOMOGENIZED HEPATOCYTES, AROCLOR 1254, Method: PREINCUBATION
  mutagenic call: active; positive

## Sc1ccccc1
Test System: AMES SALMONELLA TYPHIMURIUM, Strain/Indicator: TA98, Metabolic Activation: NONE, Method: PREINCUBATION
  mutagenic call: inactive; negative
Test System: AMES SALMONELLA TYPHIMURIUM, Strain/Indicator: TA98, Metabolic Activation: RAT LIVER S-9, PHENOBARBITAL AND BETA-NAPHTHOFLAVONE, Method: PREINCUBATION
  mutagenic call: inactive; negative
Test System: AMES SALMONELLA TYPHIMURIUM, Strain/Indicator: TA100, Metabolic Activation: NONE, Method: PREINCUBATION
  mutagenic call: inactive; negative
Test System: AMES SALMONELLA TYPHIMURIUM, Strain/Indicator: TA100, Metabolic Activation: RAT LIVER S-9, PHENOBARBITAL AND BETA-NAPHTHOFLAVONE, Method: PREINCUBATION
  mutagenic call: inactive; negative
Test System: AMES SALMONELLA TYPHIMURIUM, Strain/Indicator: TA1535, Metabolic Activation: NONE, Method: PREINCUBATION
  mutagenic call: inactive; negative
Test System: AMES SALMONELLA TYPHIMURIUM, Strain/Indicator: TA1535, Metabolic Activation: RAT LIVER S-9, PHENOBARBITAL AND BETA-NAPHTHOFLAVONE, Method: PREINCUBATION
  mutagenic call: inactive; negative
Test System: AMES SALMONELLA TYPHIMURIUM, Strain/Indicator: TA1537, Metabolic Activation: NONE, Method: PREINCUBATION
  mutagenic call: inactive; negative
Test System: AMES SALMONELLA TYPHIMURIUM, Strain/Indicator: TA1537, Metabolic Activation: RAT LIVER S-9, PHENOBARBITAL AND BETA-NAPHTHOFLAVONE, Method: PREINCUBATION
  mutagenic call: inactive; negative
Test System: AMES SALMONELLA TYPHIMURIUM, Strain/Indicator: TA1538, Metabolic Activation: NONE, Method: PREINCUBATION
  mutagenic call: inactive; negative
Test System: AMES SALMONELLA TYPHIMURIUM, Strain/Indicator: TA1538, Metabolic Activation: RAT LIVER S-9, PHENOBARBITAL AND BETA-NAPHTHOFLAVONE, Method: PREINCUBATION
  mutagenic call: inactive; negative
Test System: E.COLI, Strain/Indicator: WP2UVRA, Metabolic Activation: NONE, Method: PREINCUBATION
  mutagenic call: active; positive
Test System: E.COLI, Strain/Indicator: WP2UVRA, Metabolic Activation: RAT LIVER S-9, PHENOBARBITAL AND BETA-NAPHTHOFLAVONE, Method: PREINCUBATION
  mutagenic call: inactive; negative

## C[C@]1(O)CC[C@H]2[C@@H]3CCC4=CC(=O)CC[C@]4(C)[C@@]3(F)[C@@H](O)C[C@@]21C
End Point: IN VITRO CHROMOSOMAL ABERRATIONS, Test System: HUMAN PERIPHERAL LYMPHOCYTES, Metabolic Activation: NONE
  mutagenic call: active; positive after 72 hr treatment at 2 lower doses; positive after 48 or 72 hr trea
End Point: IN VIVO MICRONUCLEUS, Test System: BONE MARROW POLYCHROMATIC ERYTHROCYTES, Species: MOUSE, Strain/Sex: SWISS ALBINO/MALE, Route: IP
  mutagenic call: active; positive
Test System: AMES SALMONELLA TYPHIMURIUM, Strain/Indicator: TA97A, Metabolic Activation: NONE, Method: STANDARD PLATE
  mutagenic call: inactive; negative; growth inhibition at highest dose
Test System: AMES SALMONELLA TYPHIMURIUM, Strain/Indicator: TA97A, Metabolic Activation: RAT, LIVER, S-9, PHENOBARBITAL, Method: PREINCUBATION
  mutagenic call: inactive; negative
[1]
  mutagenic call: inactive; negative; growth inhibition at highest dose
Test System: AMES SALMONELLA TYPHIMURIUM, Strain/Indicator: TA98, Metabolic Activation: RAT, LIVER, S-9, PHENOBARBITAL, Method: PREINCUBATION
  mutagenic call: inactive; negative
[2]
  mutagenic call: inactive; negative; growth inhibition at highest dose
Test System: AMES SALMONELLA TYPHIMURIUM, Strain/Indicator: TA100, Metabolic Activation: RAT, LIVER, S-9, PHENOBARBITAL, Method: PREINCUBATION
  mutagenic call: inactive; negative
Test System: AMES SALMONELLA TYPHIMURIUM, Strain/Indicator: TA102, Metabolic Activation: NONE, Method: STANDARD PLATE
  mutagenic call: inactive; negative; growth inhibition at highest dose
Test System: AMES SALMONELLA TYPHIMURIUM, Strain/Indicator: TA102, Metabolic Activation: RAT, LIVER, S-9, PHENOBARBITAL, Method: PREINCUBATION
  mutagenic call: inactive; negative
[3]
  mutagenic call: inactive; negative; growth inhibition at highest dose
Test System: AMES SALMONELLA TYPHIMURIUM, Strain/Indicator: TA1535, Metabolic Activation: RAT, LIVER, S-9, PHENOBARBITAL, Method: PREINCUBATION
  mutagenic call: inactive; negative

## NCCCCC(N)C(=O)O (centres undefined)
Test System: AMES SALMONELLA TYPHIMURIUM, Strain/Indicator: TA98, Metabolic Activation: RAT LIVER S-9, CHLOROPHENE, Method: STANDARD PLATE (COMPOUND HEATED AT 250 DEGREES CELSIUS FOR 20 MIN)
  mutagenic call: active; positive

## c1ccc(CN2C3c4ccccc4-c4ccccc4C32)cc1 (centres undefined)
[2]
  mutagenic call: active; positive
